Data taken from patent publication US11072616B2, “Cyclic peptides targeting alpha-4-beta-7 integrin” (Zealand Pharma A/S, priority 2015, dated 2021).

How the values were obtained:
[1] = in vivo
Experimental: In Vivo Pharmacokinetic Assessments in Rodents
Oral bioavailability of test compounds was conducted by assessing plasma exposure of following one or two oral doses in mice and, in some cases, comparing said plasma exposure with that following a single intravenous dose of the same compound.
Body weights were recorded on the day of dosing.
Dosing: The formulation containing the test compound were administered p.o. by gavage with disposable feeding needles.
Sample processing/storage: All blood samples were transferred into K2EDTA tubes on wet ice and centrifuged within 5 min (3200×g for 5 min at 4° C.) to obtain plasma. Samples were stored frozen at −80° C. until bioanalysis.
Instrumentation: AB Sciex API 4000 Q-TRAP MS/MS system equipped with an Agilent LC system with a binary pump, a solvent degasser, a thermostatted column compartment, a CTC autosampler and a divert valve installed between the column and mass spectrometer inlet.

[2] = system: integrin alpha-4-beta-7-expressing T lymphocytes; experiment: In vivo T lymphocyte trafficking analyses in DSS-treated mice (single dose); parameters: species or system C57Bl/6 mice; conditions: 5-6 h
Experimental: In Vivo T Lymphocyte Trafficking Analyses
Animals. Female C57131/6 mice (Charles River, St-Constant, Qc), weighting 16-19 g at delivery were used for this study. Following arrival in the animal facility, all animals were subjected to a general health evaluation. An acclimation period of 7-14 days was allowed before the beginning of the study.
Administration of DSS. Dextran sulfate sodium (DSS) was administered to C57Bl/6 mice through addition to their drinking water at 2-3%. Mice accessed the DSS-treated water ad libitum over a 5-day period. Body weight and disease activity index (“DAI”) were measured on Day 5 in order to distribute DSS-treated animals in two uniform groups prior to dosing. Specific symptoms associated with colitis were scored based on the severity of each particular symptoms: 1—blood in stool (negative hemoccult, positive hemoccult, blood traces in stool visible, rectal bleeding); 2—stool consistency (normal, soft but still formed, very soft, diarrhea); 3—posture and fur (normal; ruffled fur; ruffled fur combined to slight hunched posture and slight dehydration; ruffled fur combined to hunched posture, dehydration and altered walking; moribund (euthanasia is mandatory before the animal reach this point). The overall DAI score was the sum of the three parameters (maximum score of 9). DAI assessment was performed on Day 5 only (prior to dosing). […]

CYP3A4 = CYP3A4 (Homo sapiens, UniProt P08684); experiment: in vitro; conditions: microsomes
Experimental: (§1) Cytochrome P450 Inhibition Assay
(§2) Analyses were performed using standard LC/MS/MS protocols.

CYP1A2 = biological target: T1, CYP1A2 (Homo sapiens, UniProt P05177); experiment: in vitro; conditions: microsomes
T1 sequence (P05177 1-516): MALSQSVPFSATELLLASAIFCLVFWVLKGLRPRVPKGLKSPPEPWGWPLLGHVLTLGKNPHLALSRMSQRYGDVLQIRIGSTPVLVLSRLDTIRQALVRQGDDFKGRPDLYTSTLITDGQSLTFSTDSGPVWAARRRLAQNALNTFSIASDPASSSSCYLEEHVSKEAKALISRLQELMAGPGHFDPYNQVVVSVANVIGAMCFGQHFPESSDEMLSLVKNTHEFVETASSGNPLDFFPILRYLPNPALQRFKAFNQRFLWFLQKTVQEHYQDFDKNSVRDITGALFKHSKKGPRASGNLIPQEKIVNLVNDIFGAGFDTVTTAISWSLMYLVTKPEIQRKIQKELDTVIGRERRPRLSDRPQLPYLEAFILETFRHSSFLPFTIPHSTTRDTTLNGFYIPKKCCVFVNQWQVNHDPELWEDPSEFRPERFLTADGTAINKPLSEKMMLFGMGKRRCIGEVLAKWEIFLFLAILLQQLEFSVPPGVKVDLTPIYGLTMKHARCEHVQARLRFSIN
Experimental: as §1, §2

CYP2C9 = CYP2C9 (Homo sapiens, UniProt P11712); experiment: in vitro; conditions: microsomes
Experimental: as §1, §2

CYP2D6 = CYP2D6 (Homo sapiens, UniProt P10635); experiment: in vitro; conditions: microsomes
Experimental: as §1, §2

[3] = Plasma protein binding, equilibrium dialysis, mouse plasma; conditions: for fraction unbound at 5 h, 1 microM: 50% plasma; for % recovery: mouse plasma dialysis
Experimental: (§3) An equilibrium dialysis (HTDialysis) method was used employing 50% plasma collected from CD-1 mice or Sprague-Dawley rats and incubated with K2EDTA. Test articles were assessed at 1 microM concentration in three replicates. Incubation time as 5 hours and plasma and buffer standards were assessed using LC/MS/MS. Percentage recovery was calculated as (Cbuffer+Cplasma)/[average]Cinitial, [average]Cinitial being measured in triplicate from the test samples prior to dialysis. Percentage of compound unbound was calculated as Cbuffer/Cplasma.

[4] = Plasma protein binding, equilibrium dialysis, rat plasma; conditions: for fraction unbound at 5 h, 1 microM: 50% plasma; for % recovery: rat plasma dialysis
Experimental: as §3

[5] = not given; remark: listed apart in the source
[6] = CD-1, mouse, % unbound (Cbuffer/Cplasma) Mouse plasma 1, replicate 1, 1 microM, 5 h
[7] = CD-1, mouse, % unbound (Cbuffer/Cplasma) Mouse plasma 2, replicate 2, 1 microM, 5 h
[8] = CD-1, mouse, % unbound (Cbuffer/Cplasma) Mouse plasma 3, replicate 3, 1 microM, 5 h
[9] = CD-1, mouse, % unbound (Cbuffer/Cplasma) Mouse plasma Average, average of 3 replicates
[10] = Sprague-Dawley, rat, % unbound (Cbuffer/Cplasma) Rat plasma 1, replicate 1, 1 microM, 5 h
[11] = Sprague-Dawley, rat, % unbound (Cbuffer/Cplasma) Rat plasma 2, replicate 2, 1 microM, 5 h
[12] = Sprague-Dawley, rat, % unbound (Cbuffer/Cplasma) Rat plasma 3, replicate 3, 1 microM, 5 h
[13] = Sprague-Dawley, rat, % unbound (Cbuffer/Cplasma) Rat plasma Average, average of 3 replicates

Sequence of CYP2C9 (P11712 whole entry): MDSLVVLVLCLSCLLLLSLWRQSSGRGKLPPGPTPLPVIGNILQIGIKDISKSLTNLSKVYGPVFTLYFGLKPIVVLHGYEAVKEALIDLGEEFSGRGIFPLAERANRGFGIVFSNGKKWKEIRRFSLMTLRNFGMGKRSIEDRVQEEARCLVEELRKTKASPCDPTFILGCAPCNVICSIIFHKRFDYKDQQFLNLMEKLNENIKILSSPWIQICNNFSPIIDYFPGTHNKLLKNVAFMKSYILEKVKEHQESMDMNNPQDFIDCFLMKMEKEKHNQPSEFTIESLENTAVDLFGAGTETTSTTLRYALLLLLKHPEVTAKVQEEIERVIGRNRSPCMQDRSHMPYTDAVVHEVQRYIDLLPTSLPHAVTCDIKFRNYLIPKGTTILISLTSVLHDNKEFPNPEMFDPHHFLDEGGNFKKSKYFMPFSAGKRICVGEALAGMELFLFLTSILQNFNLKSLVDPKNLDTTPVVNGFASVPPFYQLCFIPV
Sequence of CYP2D6 (P10635 whole entry): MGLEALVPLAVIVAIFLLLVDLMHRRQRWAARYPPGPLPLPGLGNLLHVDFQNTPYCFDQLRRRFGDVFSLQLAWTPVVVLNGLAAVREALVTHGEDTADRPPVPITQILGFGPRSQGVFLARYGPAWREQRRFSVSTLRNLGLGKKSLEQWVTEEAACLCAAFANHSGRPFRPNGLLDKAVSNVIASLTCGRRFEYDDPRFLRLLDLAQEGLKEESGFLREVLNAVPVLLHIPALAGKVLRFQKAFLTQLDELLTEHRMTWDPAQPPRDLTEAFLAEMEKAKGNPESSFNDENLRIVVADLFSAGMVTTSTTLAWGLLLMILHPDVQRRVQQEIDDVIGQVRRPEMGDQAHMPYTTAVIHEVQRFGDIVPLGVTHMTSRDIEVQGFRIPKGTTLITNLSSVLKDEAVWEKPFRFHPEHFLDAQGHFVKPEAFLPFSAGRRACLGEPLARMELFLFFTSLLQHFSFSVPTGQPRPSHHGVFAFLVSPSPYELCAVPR
Sequence of CYP3A4 (P08684 whole entry): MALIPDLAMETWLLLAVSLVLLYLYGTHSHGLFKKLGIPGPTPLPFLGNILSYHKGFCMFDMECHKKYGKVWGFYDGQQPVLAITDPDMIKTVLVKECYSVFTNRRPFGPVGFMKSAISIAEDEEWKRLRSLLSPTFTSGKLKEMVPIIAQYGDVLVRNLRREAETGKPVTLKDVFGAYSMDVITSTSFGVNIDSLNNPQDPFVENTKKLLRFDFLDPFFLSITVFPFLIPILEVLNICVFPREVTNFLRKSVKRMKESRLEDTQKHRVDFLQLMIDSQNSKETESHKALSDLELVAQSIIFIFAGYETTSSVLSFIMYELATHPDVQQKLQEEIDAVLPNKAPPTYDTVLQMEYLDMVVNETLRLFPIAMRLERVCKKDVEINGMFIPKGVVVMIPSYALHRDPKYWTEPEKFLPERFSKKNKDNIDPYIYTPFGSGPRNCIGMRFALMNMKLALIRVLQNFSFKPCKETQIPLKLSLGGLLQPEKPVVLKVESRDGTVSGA

For `CC(C)C[C@@H]1NC(=O)CN(C)C(=O)[C@H](Cc2ccc(O)cc2)NC(=O)[C@@H]2CCCN2[C@H](C(=O)NC(C)(C)C)[C@H](C)NC(=O)[C@H]([C@@H](C)O)NC(=O)[C@H](CC(=O)O)NC1=O` [ET2154], the “oral bioavailability / absorption (in words)” value ([1]; mouse, po) was “low oral bioavailability” and the “homing of T lymphocytes to the MLN” value ([2]; 200 mg/kg single oral dose) was “significant and robust attenuation of homing to the MLN”.
In the case of `CC[C@H](C)[C@@H]1NC(=O)[C@H](CCO)NC(=O)[C@H](CC(C)C)NC(=O)[C@H](Cc2ccc3ccccc3c2)NC(=O)[C@@H]2CCCN2[C@H](C(=O)NC(C)(C)C)[C@H](C)NC1=O` [ET01842-01], the IC50 (CYP3A4; human) is reported as 0.89 µM, the IC50 (CYP1A2; human) is reported as > 15 µM and the IC50 (CYP2C9; human) is reported as > 15 µM. For the same compound, the IC50 (CYP2D6; human) was > 15 µM.
With `CC(C)C[C@H]1C(=O)N[C@@H](C(C)C)C(=O)N[C@@H](Cc2ccccc2)C(=O)N[C@@H](C)[C@@H](C(=O)NC(C)(C)C)N2CCC[C@H]2C(=O)N[C@@H]([C@@H](C)O)C(=O)N1C` [ET00328-01] the IC50 (CYP3A4; human) was 9.7 µM, the IC50 (CYP1A2; human) was > 15 µM and the IC50 (CYP2C9; human) was > 15 µM. The IC50 (CYP2D6; human) was > 15 µM.
In the case of `Clc1ccc(COC(Cn2ccnc2)c2ccc(Cl)cc2Cl)c(Cl)c1` (stereo not drawn) [Miconazole, reference compound], the IC50 (CYP2C9; human) is reported as 0.32 µM.
`CC(C)NCC(O)COc1cccc2ccccc12` (stereo not drawn) [Propranolol, reference compound] gave a recovery at 5 h, 1 microM ([3]; CD-1, mouse, 50% plasma (K2EDTA)) of 93%, a fraction unbound at 5 h, 1 microM [3, 6] of 0.229 and a fraction unbound at 5 h, 1 microM [3, 7] of 0.201. For the same compound, the fraction unbound at 5 h, 1 microM [3, 8] was 0.201, the fraction unbound at 5 h, 1 microM [3, 9] was 0.21 and the fraction unbound at 5 h, 1 microM ([3]; CD-1, mouse, free fraction (% unbound), mouse plasma) was ~0.21. For the same compound, the recovery at 5 h, 1 microM ([4]; Sprague-Dawley, rat, 50% plasma (K2EDTA)) was 79%, the fraction unbound at 5 h, 1 microM [4, 10] was 0.146 and the fraction unbound at 5 h, 1 microM [4, 11] was 0.147. For the same compound, the fraction unbound at 5 h, 1 microM [4, 12] was 0.147, the fraction unbound at 5 h, 1 microM [4, 13] was 0.147 and the fraction unbound at 5 h, 1 microM ([4]; Sprague-Dawley, rat, free fraction (% unbound), rat plasma) was ~0.15.
With `CC(C)C[C@@H]1NC(=O)[C@H](Cc2ccc(-c3ccccc3)cc2)NC(=O)[C@@H]2CCCN2[C@H](C(=O)NC(C)(C)C)[C@H](C)NC(=O)[C@H]([C@@H](C)O)NC(=O)[C@H](CC(=O)O)NC1=O` [ET01813] the IC50 (CYP3A4) was > 15 µM, the IC50 (CYP1A2) was > 15 µM and the IC50 (CYP2C9) was > 15 µM. For the same compound, the IC50 (CYP2D6) was > 15 µM, the CLs ([1]; male, CD-1, mouse, iv, 5 mg/kg) was 114.8 mL/min/kg and the calculated oral bioavailability ([1]; mouse) was ~1%. For the same compound, the terminal half-life ([1]; mouse) was ~2 h, the tmax ([1]; mouse, po, 40 mg/kg) was 5 min and the “Control buffer/Buffer at 0.1 uM Cdonor/Creceiver” value (from here on “Control buffer/Buffer”) [3] was 94%. For the same compound, the “% unbound (Cbuffer/Cplasma) Mouse plasma 1” value was 24.7%, the “% unbound (Cbuffer/Cplasma) Mouse plasma 2” value was 22.2% and the “% unbound (Cbuffer/Cplasma) Mouse plasma 3” value was 18.8%. The “% unbound (Cbuffer/Cplasma) Mouse plasma Average” value was 21.9%, the “% unbound (Cbuffer/Cplasma) Rat plasma 1” value [5] was 15.8% and the “% unbound (Cbuffer/Cplasma) Rat plasma 2” value [5] was 20.1%. The “% unbound (Cbuffer/Cplasma) Rat plasma 3” value [5] was 21.7%, the “% unbound (Cbuffer/Cplasma) Rat plasma Average” value [5] was 19.2% and the “% recovery” value [4] was 89%.
With `CC(C)C[C@@H]1NC(=O)[C@H](Cc2ccccc2)NC(=O)[C@@H]2CCCN2[C@H](C(=O)NC(C)(C)C)[C@H](C)NC(=O)[C@H]([C@@H](C)O)NC(=O)[C@H](CC(=O)O)NC1=O` [ET01792] the IC50 (CYP3A4) was > 15 µM, the IC50 (CYP1A2) was > 15 µM and the IC50 (CYP2C9) was > 15 µM. For the same compound, the IC50 (CYP2D6) was > 15 µM, the “oral bioavailability / absorption (in words)” value ([1]; mouse, po) was “high oral bioavailability” and the “exposure (AUC0-tlast)” value ([1]; mouse, po, 40 mg/kg) was 589 ng·h/mL. The “maximum plasma concentration after the first dose” value ([1]; mouse, po, 48 mg/kg) was ~1,600 ng/ml, the “Control buffer/Buffer” value [3] was 80% and the “% recovery” value [3] was 130%. For the same compound, the “homing of T lymphocytes to the MLN” value ([2]; 100 mg/kg single oral dose) was “significant reduction of homing to the MLN”, the “% unbound (Cbuffer/Cplasma) Mouse plasma 1” value was 64.8% and the “% unbound (Cbuffer/Cplasma) Mouse plasma 2” value was 52.9%. For the same compound, the “% unbound (Cbuffer/Cplasma) Mouse plasma 3” value was 67.9%, the “% unbound (Cbuffer/Cplasma) Mouse plasma Average” value was 61.9% and the “% unbound (Cbuffer/Cplasma) Rat plasma 1” value [5] was 82.9%. The “% unbound (Cbuffer/Cplasma) Rat plasma 2” value [5] was 77.3%, the “% unbound (Cbuffer/Cplasma) Rat plasma 3” value [5] was 79.5% and the “% unbound (Cbuffer/Cplasma) Rat plasma Average” value [5] was 79.9%. The “% recovery” value [4] was 97%.
With `CC(C)C[C@@H]1NC(=O)[C@H](Cc2c[nH]c3ccccc23)NC(=O)[C@@H]2CCCN2[C@H](C(=O)NC(C)(C)C)[C@H](C)NC(=O)[C@H]([C@@H](C)O)NC(=O)[C@H](CC(=O)O)NC1=O` [ET00762] the IC50 (CYP3A4; human) was > 15 µM, the IC50 (CYP1A2; human) was > 15 µM and the IC50 (CYP2C9; human) was > 15 µM. The IC50 (CYP2D6; human) was > 15 µM, the recovery at 5 hours, 1 microM ([3]; CD-1, mouse) was 150% and the fraction unbound at 5 h, 1 microM [3, 6] was 0.806. It also gave a fraction unbound at 5 h, 1 microM [3, 7] of 0.744, a fraction unbound at 5 h, 1 microM [3, 8] of 0.757 and a fraction unbound at 5 h, 1 microM [3, 9] of 0.769. The “Control buffer/Buffer” value [3] was 79%, the recovery at 5 hours, 0.1 uM ([3]; buffer/buffer equilibrium dialysis control (HTDialysis)) was 99% and the recovery at 5 hours, 1 microM ([4]; Sprague-Dawley, rat) was 94%. For the same compound, the fraction unbound at 5 h, 1 microM [4, 10] was 0.833, the fraction unbound at 5 h, 1 microM [4, 11] was 0.761 and the fraction unbound at 5 h, 1 microM [4, 12] was 0.702. The fraction unbound at 5 h, 1 microM [4, 13] was 0.765.
For `CC[C@H](C)[C@@H]1NC(=O)[C@H](CC(=O)O)NC(=O)[C@H](CC(C)C)NC(=O)[C@H](Cc2ccc3ccccc3c2)NC(=O)[C@@H]2CCCN2[C@H](C(=O)NC(C)(C)C)[C@H](C)NC1=O` [ET01827], the “Control buffer/Buffer” value [3] was 86%, the “% recovery” value [3] was 103% and the “% unbound (Cbuffer/Cplasma) Mouse plasma 3” value was 9.3%. The “% unbound (Cbuffer/Cplasma) Mouse plasma Average” value was 9.5%, the “% unbound (Cbuffer/Cplasma) Rat plasma 1” value [5] was 16.2% and the “% unbound (Cbuffer/Cplasma) Rat plasma 2” value [5] was 17.4%. For the same compound, the “% unbound (Cbuffer/Cplasma) Rat plasma Average” value [5] was 15.7% and the “% recovery” value [4] was 143%.
